What was measured:
barnyardgrass [1] = experiment: Test C preemergence; assay type: in vivo, Echinochloa crus-galli; settings: for Barnyardgrass plant response rating: preemergence; for Plant response rating, Barnyardgrass: Preemergence, 31 g ai/ha, scale 0 to 100, 0 no effect, 100 complete control
How it was run: (§1)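 Seeds are planted in blended loam soil and sand and treated preemergence, while seedlings in a peat moss/vermiculite medium receive postemergence sprays at 2 to 18 cm height. All plants stay in the greenhouse for 13 to 15 days before visual comparison with controls on a 0–100 scale.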

blackgrass = experiment: Test C preemergence; assay type: in vivo, Alopecurus myosuroides; settings: for Blackgrass plant response rating: preemergence; for Plant response rating, Blackgrass: Preemergence, 31 g ai/ha, scale 0 to 100, 0 no effect, 100 complete control
How it was run: as §1

lambsquarters = experiment: Test C preemergence; assay type: in vivo, Chenopodium album; settings: for Lambsquarters plant response rating: preemergence
How it was run: as §1

Italian ryegrass [2] = experiment: Test C postemergence; assay type: in vivo, Lolium multiflorum
How it was run: as §1

velvetleaf = experiment: Test C preemergence; assay type: in vivo, Abutilon theophrasti; settings: for Velvetleaf plant response rating: preemergence
How it was run: as §1

soybean = experiment: Test C postemergence; assay type: in vivo, Glycine max
How it was run: as §1

pigweed = experiment: Test A postemergence; assay type: in vivo, Amaranthus retroflexus; settings: 0 to 100 scale where 0 is no effect and 100 is complete control
How it was run: (§2)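 Visual 0–100 rating (100 = complete control) taken about 10 d post-treatment relative to untreated checks. Preemergence: directed soil spray on sown loam/sand pots. Postemergence: seedlings 2–10 cm, 1–2 leaf. Non-phytotoxic solvent formulation with surfactant.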

Italian ryegrass [3] = experiment: Test C preemergence; assay type: in vivo, Lolium multiflorum; settings: for Ryegrass, Italian plant response rating: preemergence
How it was run: as §1

johnsongrass = experiment: Test C postemergence; assay type: in vivo, Sorghum halepense; settings: for Johnsongrass plant response rating / Plant response rating, Johnsongrass: scale 0 to 100 (0 no effect, 100 complete control)
How it was run: as §1

Heteranthera limosa = experiment: Test B flooded paddy test; assay type: in vivo; settings: Flood, 250 g ai/ha; 0 to 100 scale where 0 is no effect and 100 is complete control
How it was run: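 Seedlings are raised to two leaves, flooded to a depth of 3 cm and dosed by adding the compound to the floodwater. Water level is kept constant, and plants are scored visually versus controls 13–15 days later (0 = no effect, 100 = complete control).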

giant foxtail [4] = experiment: Test A postemergence; assay type: in vivo, Setaria faberii; settings: 0 to 100 scale where 0 is no effect and 100 is complete control
How it was run: as §2

giant foxtail [5] = experiment: Test A preemergence; assay type: in vivo, Setaria faberii; settings: for Plant response rating, Foxtail, Giant: 125 g ai/ha; for Foxtail, Giant plant response rating: 500 g ai/ha
How it was run: as §2

wheat, winter = experiment: Test C preemergence; assay type: in vivo, Triticum aestivum; settings: for Wheat plant response rating: preemergence
How it was run: as §1

barnyardgrass [6] = experiment: Test A postemergence; assay type: in vivo, Echinochloa crus-galli; settings: 0 to 100 scale where 0 is no effect and 100 is complete control
How it was run: as §2

[7] = 16 g ai/ha, scale 0 to 100 (0 no effect, 100 complete control)
[8] = 62 g ai/ha, scale 0 (no effect) to 100 (complete control)
[9] = 125 g ai/ha, scale 0 (no effect) to 100 (complete control)
[10] = Preemergence, 31 g ai/ha, scale 0 to 100, 0 no effect, 100 complete control
[11] = Postemergence, 31 g ai/ha, scale 0 to 100 (0 no effect, 100 complete control), 13 to 15 days
[12] = Postemergence, 62 g ai/ha, scale 0 to 100 (0 no effect, 100 complete control)
[13] = 0 to 100 scale where 0 is no effect and 100 is complete control
[14] = 16 g ai/ha, postemergence, 0 is no effect, 100 is complete control
[15] = 31 g ai/ha, postemergence, visual rating, scale 0 to 100 (0 no effect, 100 complete control), 13 to 15 days
[16] = 125 g ai/ha, postemergence, visual rating, scale 0 to 100 (0 no effect, 100 complete control)

`N#Cc1cccc(Oc2ncc(F)cn2)c1-n1cc(I)cn1` [Compound 86] was tested, and the “Barnyardgrass plant response rating” value (barnyardgrass [1]; [7]) was 5, the “Barnyardgrass plant response rating” value (barnyardgrass [1]; [8]) was 40 and the “Barnyardgrass plant response rating” value (barnyardgrass [1]; [9]) was 95. The “Plant response rating, Barnyardgrass” value (barnyardgrass [1]) was 10, the “Blackgrass plant response rating” value (blackgrass; [7]) was 0 and the “Blackgrass plant response rating” value (blackgrass; [8]) was 90. The “Blackgrass plant response rating” value (blackgrass; [9]) was 98, the “Plant response rating, Blackgrass” value (blackgrass) was 20 and the “Lambsquarters plant response rating” value (lambsquarters; [7]) was 100. For the same compound, the “Lambsquarters plant response rating” value (lambsquarters; [8]) was 100, the “Lambsquarters plant response rating” value (lambsquarters; [9]) was 100 and the “Plant response rating, Lambsquarters” value (lambsquarters; [10]) was 100. The “Plant response rating (0 to 100), Ryegrass, Italian” value (Italian ryegrass [2]; 125 g ai/ha, postemergence) was 5, the “Plant response rating, Ryegrass, Italian” value (Italian ryegrass [2]; [11]) was 0 and the “Plant response rating, Ryegrass, Italian” value (Italian ryegrass [2]; [12]) was 5. The “Velvetleaf plant response rating” value (velvetleaf; [7]) was 20, the “Velvetleaf plant response rating” value (velvetleaf; [8]) was 100 and the “Velvetleaf plant response rating” value (velvetleaf; [9]) was 100. The “Plant response rating, Velvetleaf” value (velvetleaf; [10]) was 50, the “Plant response rating (0 to 100), Soybean” value (soybean; 125 g ai/ha, postemergence) was 75 and the “Plant response rating, Soybean” value (soybean; [11]) was 60. For the same compound, the “Plant response rating, Soybean” value (soybean; [12]) was 70, the “Plant response rating, Pigweed” value (pigweed; 125 g ai/ha) was 100 and the “Plant response rating, Pigweed” value (pigweed; 500 g ai/ha) was 100. The “Ryegrass, Italian plant response rating” value (Italian ryegrass [3]; [7]) was 0, the “Ryegrass, Italian plant response rating” value (Italian ryegrass [3]; [8]) was 30 and the “Ryegrass, Italian plant response rating” value (Italian ryegrass [3]; [9]) was 35. The “Plant response rating, Ryegrass, Italian” value (Italian ryegrass [3]; [10]) was 0, the “Johnsongrass plant response rating” value (johnsongrass; 16 g ai/ha, postemergence, visual rating, 13 to 15 days) was 0 and the “Plant response rating (0 to 100), Johnsongrass” value (johnsongrass; 125 g ai/ha, postemergence) was 5. For the same compound, the “Plant response rating, Johnsongrass” value (johnsongrass; Postemergence, 31 g ai/ha, 13 to 15 days) was 5, the “Plant response rating, Johnsongrass” value (johnsongrass; Postemergence, 62 g ai/ha) was 5 and the “Plant response rating, Ducksalad” value (Heteranthera limosa) was 75. The “Plant response rating, Foxtail, Giant” value (giant foxtail [4]; 125 g ai/ha) was 90, the “Plant response rating, Foxtail, Giant” value (giant foxtail [4]; 500 g ai/ha) was 100 and the “Plant response rating, Foxtail, Giant” value (giant foxtail [5]; [13]) was 100. The “Foxtail, Giant plant response rating” value (giant foxtail [5]; 0 to 100 scale, 0 no effect, 100 complete control, approx. 10 days) was 100, the “Wheat plant response rating” value (wheat, winter; [7]) was 0 and the “Wheat plant response rating” value (wheat, winter; [8]) was 0. For the same compound, the “Wheat plant response rating” value (wheat, winter; [9]) was 35, the “Plant response rating, Wheat” value (wheat, winter; [10]) was 0 and the “Plant response rating, Barnyardgrass” value (barnyardgrass [6]; 125 g ai/ha) was 90. For the same compound, the “Plant response rating, Barnyardgrass” value (barnyardgrass [6]; 500 g ai/ha) was 100.
For `CCCOc1cnn(-c2c(C#N)cccc2Oc2ncc(Cl)cn2)c1` [Compound 150], the “Barnyardgrass plant response rating” value (barnyardgrass [1]; [7]) was 5, the “Barnyardgrass plant response rating” value (barnyardgrass [1]; [8]) was 65 and the “Barnyardgrass plant response rating” value (barnyardgrass [1]; [9]) was 80. The “Plant response rating, Barnyardgrass” value (barnyardgrass [1]) was 20, the “Blackgrass plant response rating” value (blackgrass; [7]) was 0 and the “Blackgrass plant response rating” value (blackgrass; [8]) was 50. The “Blackgrass plant response rating” value (blackgrass; [9]) was 50, the “Plant response rating, Blackgrass” value (blackgrass) was 10 and the “Lambsquarters plant response rating” value (lambsquarters; [7]) was 10. The “Lambsquarters plant response rating” value (lambsquarters; [8]) was 80, the “Lambsquarters plant response rating” value (lambsquarters; [9]) was 100 and the “Plant response rating (0 to 100), Ryegrass, Italian” value (Italian ryegrass [2]; [14]) was 0. For the same compound, the “Ryegrass, Italian plant response rating” value (Italian ryegrass [2]; [15]) was 0, the “Plant response rating, Ryegrass, Italian” value (Italian ryegrass [2]; [16]) was 5 and the “Plant response rating, Ryegrass, Italian” value (Italian ryegrass [2]; [12]) was 5. The “Velvetleaf plant response rating” value (velvetleaf; [7]) was 5, the “Velvetleaf plant response rating” value (velvetleaf; [8]) was 60 and the “Velvetleaf plant response rating” value (velvetleaf; [9]) was 70. For the same compound, the “Plant response rating (0 to 100), Soybean” value (soybean; [14]) was 65, the “Soybean plant response rating” value (soybean; [15]) was 65 and the “Plant response rating, Soybean” value (soybean; [16]) was 95. The “Plant response rating, Soybean” value (soybean; [12]) was 65, the “Pigweed plant response rating” value (pigweed; 125 g ai/ha) was 100 and the “Plant response rating, Pigweed” value (pigweed; 500 g ai/ha) was 100. The “Ryegrass, Italian plant response rating” value (Italian ryegrass [3]; [7]) was 0, the “Ryegrass, Italian plant response rating” value (Italian ryegrass [3]; [8]) was 30 and the “Ryegrass, Italian plant response rating” value (Italian ryegrass [3]; [9]) was 50. For the same compound, the “Plant response rating (0 to 100), Johnsongrass” value (johnsongrass; [14]) was 0, the “Johnsongrass plant response rating” value (johnsongrass; 31 g ai/ha, postemergence, visual rating, 13 to 15 days) was 0 and the “Plant response rating, Johnsongrass” value (johnsongrass; 125 g ai/ha, postemergence, visual rating) was 5. The “Plant response rating, Johnsongrass” value (johnsongrass; Postemergence, 62 g ai/ha) was 5, the “Plant response rating, Ducksalad” value (Heteranthera limosa) was 90 and the “Foxtail, Giant plant response rating” value (giant foxtail [4]; 125 g ai/ha) was 100. For the same compound, the “Plant response rating, Foxtail, Giant” value (giant foxtail [4]; 500 g ai/ha) was 100, the “Plant response rating, Foxtail, Giant” value (giant foxtail [5]; [13]) was 100 and the “Foxtail, Giant plant response rating” value (giant foxtail [5]; [13]) was 100. For the same compound, the “Wheat plant response rating” value (wheat, winter; [7]) was 0, the “Wheat plant response rating” value (wheat, winter; [8]) was 5 and the “Wheat plant response rating” value (wheat, winter; [9]) was 5. For the same compound, the “Barnyardgrass plant response rating” value (barnyardgrass [6]; 125 g ai/ha) was 100.

From patent US9695155B2, “Herbicidal substituted pyrimidinyloxy benzene compounds” (E. I. DU PONT DE NEMOURS AND COMPANY, priority 2013, dated 2017)
